Experiment [1] has as its system HBV surface antigen (HBsAg). The experiment in a line: HBV in vitro test: HBV surface antigen in HepG2.2.15 culture supernatant by ELISA. The format is cell-based, Hepatitis B Virus (HBV). As for the experimental part:
(§1) The content of HBV DNA in HepG2. 2. 15 cell culture supernatant was detected by a real-time quantitative qPCR assay (real time-qPCR), and the content of HBV surface antigen was detected by enzyme-linked immunosorbent assay (ELISA), the compound EC50 value was used as an index to evaluate the inhibitory effect of the compound on HBV.
(§2) 3.1. HepG2. 2. 15 cells (4×10^4 cells/well) was plated into a 96-well plate and cultured overnight at 37° C., 5% CO2.
(§3) 3.2. The next day, the compound was diluted to 8 concentrations, 3-folds gradients dilution. The compound of different gradients were added into the culture well, double duplicated the wells. The final concentration of the DMSO was 0.5% in the culture solution. 10 μM ETV was used as 100% inhibition control; 0.5% of DMSO was used as 0% inhibition control.
(§4) 3.3. On the fifth day, the culture solution was replaced by fresh culture solution containing the compound.
(§5) 3.4. On the eighth day, the culture solution in the culture well was collected, and the content of hepatitis B virus S antigen was measured by ELISA with partial samples; and still partial samples was taken for extraction of DNA using high-throughput DNA purification kit (Qiagen-51162).
3.9. Content determination of hepatitis B virus S antigen measured by ELISA
50 μL sample and standard sample were taken and added into the reaction plate respectively, then 50 μL enzyme conjugate was added into each of the wells, shaked to mix well, then kept in warm bath at 37° C. for 60 min, and the plate was washed with cleansing solution for 5 times, 50 μL luminescent substrate was added into each wells, mixed well and reacted at r.t. for 10 min in the dark, the chemiluminescence intensity was finally detected with ELISA. The inhibition percentage of each compound was calculated by the following formula: inhibition rate (%)=(1−value in sample/DMSO control group value)×100%. The dose-response curves was fitted by GraphPad Prism software, and the 50% inhibited concentration EC50 value of the compound against HBV was calculated.

The next experiment has as its system HBV DNA. The experiment in a line: HBV in vitro test: HBV DNA in HepG2.2.15 culture supernatant by real time-qPCR. The format is cell-based, Hepatitis B Virus (HBV). As for the experimental part: as §1, §2, §3, §4, §5
3.6. 15 μL reaction mixture was added into each well of the 96-well PCR plate, then in each well was added 10 μL sample DNA or standard product of HBV DNA.
3.7. The qPCR plate was sealed with optical sealing film, centrifuged at 1500 rpm for 2 minutes, and then the HBV copy number of each sample was quantitatively detected by fluorescence quantitative qPCR. The operation procedure of qPCR is as follows
Calculation of the Inhibition Percentage % Inh.=(1−value in the sample/DMSO control group value)×100%.
The dose-response curves was fitted by GraphPad Prism software, and the 50% inhibited concentration EC50 value of the compound against HBV was calculated.
On the technique in general: In qPCR the cycle at which signal appears reflects the starting amount.

Setting [2] is: Hepatitis B virus, HepG2.2.15, read-out: HBsAg experimental results EC50.
The mark [3] stands for this setting: Hepatitis B virus, HepG2.2.15, HepG2. 2. 15 cell culture supernatant, collected on the eighth day, real time-qPCR, read-out: HBV-DNA experimental results EC50.
Setting [4] is: Hepatitis B virus, HepG2.2.15, read-out: HBV-DNA experimental results EC50.

As usually defined, the EC50 is the concentration giving half of the maximal effect.

Where two headings read alike, the source gives them in different places.

With `COCCCOc1cc2c(cc1Cl)-c1cc(=O)c(C(=O)O)cn1C(c1c(F)cccc1Cl)O2` (stereo not drawn) [Embodiment 27], the EC50 in experiment [1] (setting [2]) was 39.1 nM; in the experiment on HBV DNA (setting [3]) it was 23.6 nM.
As to `COCCCOc1cc2c(cc1Cl)-c1cc(=O)c(C(=O)O)cn1C(c1cccc(Cl)c1)O2` (stereo not drawn) [Embodiment 16], the EC50 (in experiment [1] (setting [2]); in the experiment with HBV DNA (setting [4])) was 45.3 nM in each case.
With `COCCCOc1cc2c(cc1Cl)-c1cc(=O)c(C(=O)O)cn1C(c1cc(F)ccc1F)O2` (stereo not drawn) [Embodiment 32], the values for the EC50 (in experiment [1] (setting [2]); in the experiment with HBV DNA (setting [3])) were 71 nM and 35.2 nM, respectively.
As for `COCCCOc1cc2c(cc1Cl)-c1cc(=O)c(C(=O)O)cn1C(c1ccccc1Cl)O2` (stereo not drawn) [Embodiment 15], the half-maximal effective concentration (EC50) with HBV DNA (setting [3]) turned out to be 8.2 nM.
In the case of `COCCCOc1cc2c(cc1Cl)-c1cc(=O)c(C(=O)O)cn1C(c1cncs1)O2` (stereo not drawn) [Embodiment 38], the half-maximal effective concentration (EC50) in experiment [1] (setting [2]) worked out at 12.3 nM; with HBV DNA (setting [3]), 20.4 nM.
The like results for `COCCCOc1cc2c(cc1Cl)-c1cc(=O)c(C(=O)O)cn1C(c1ccccc1F)O2` (stereo not drawn) [Embodiment 19] were, in that order, 20.9 nM and 3.88 nM.
In the case of `O=C(O)c1cn2c(cc1=O)-c1cc(Cl)c(OCC3CC3)cc1OC2c1ncc(Cl)s1` (stereo not drawn) [Embodiment 44], the EC50 in experiment [1] (setting [2]) was determined as 212 nM; in the experiment with HBV DNA (setting [3]), 129 nM.
The like results for `O=C(O)c1cn2c(cc1=O)-c1cc(Cl)c(OCCCN3CCCC3=O)cc1OC2c1ccccc1` (stereo not drawn) [Embodiment 12] were, in that order, 213 nM and 78.1 nM.
As to `COCCCOc1cc2c(cc1Cl)-c1cc(=O)c(C(=O)O)cn1C(c1ccc(Cl)cc1)O2` (stereo not drawn) [Embodiment 17], the EC50 (in experiment [1] (setting [2]); in the experiment on HBV DNA (setting [4])) was 254 nM throughout.
In the case of `O=C(O)c1cn2c(cc1=O)-c1cc(Cl)c(OCC(F)(F)CO)cc1OC2c1ccccc1` (stereo not drawn) [Embodiment 10], the EC50 in experiment [1] (setting [2]) was found to be 102 nM; with HBV DNA (setting [3]), 51 nM.
The like results for `COCCCOc1cc2c(cc1Cl)-c1cc(=O)c(C(=O)O)cn1C(c1cc(OC)ccc1F)O2` (stereo not drawn) [Embodiment 26] were, in that order, 101 nM and 152 nM.
The like results for `COCCCOc1cc2c(cc1Cl)-c1cc(=O)c(C(=O)O)cn1C(c1cc(F)cc(F)c1)O2` (stereo not drawn) [Embodiment 30] were, in that order, 28.2 nM and 18.5 nM.
The like results for `O=C(O)c1cn2c(cc1=O)-c1cc(Cl)c(OCCO)cc1OC2c1ccccc1` (stereo not drawn) [Embodiment 7] were, in that order, 299 nM and 211 nM.
For `O=C(O)c1cn2c(cc1=O)-c1cc(Cl)c(OCC(F)F)cc1OC2c1ccccc1` (stereo not drawn) [Embodiment 4], the half-maximal effective concentration (EC50) amounted to 31.9 nM in experiment [1] (setting [2]) and 15 nM in the experiment with HBV DNA (setting [3]).
Consider `COCCCOc1cc2c(cc1Cl)-c1cc(=O)c(C(=O)O)cn1C(c1cccc(F)c1F)O2` (stereo not drawn) [Embodiment 31], for which the EC50 came to 203 nM in experiment [1] (setting [2]) and 90.5 nM with HBV DNA (setting [3]).
Regarding `COCCCOc1cc2c(cc1Cl)-c1cc(=O)c(C(=O)O)cn1C(c1cnsc1)O2` (stereo not drawn) [Embodiment 37], the EC50 was determined as 26.6 nM in experiment [1] (setting [2]) and 10.6 nM with HBV DNA (setting [3]).
The like results for `Cc1csc(C2Oc3cc(OCC4CC4)c(Cl)cc3-c3cc(=O)c(C(=O)O)cn32)n1` (stereo not drawn) [Embodiment 42] were, in that order, 7.88 nM and 2.19 nM.
`COCCOc1cc2c(cc1Cl)-c1cc(=O)c(C(=O)O)cn1C(c1ccccc1)O2` (stereo not drawn) [Embodiment 3]: the results for the EC50 (in experiment [1] (setting [2]); with HBV DNA (setting [3])) were 47.6 nM and 27.6 nM, respectively.
The like results for `COCCCOc1cc2c(cc1Cl)-c1cc(=O)c(C(=O)O)cn1C(c1ccc(F)cc1F)O2` (stereo not drawn) [Embodiment 33] were, in that order, 10.2 nM and 12.6 nM.
The like results for `COCCCOc1cc2c(cc1Cl)-c1cc(=O)c(C(=O)O)cn1C(c1csc(Cl)c1Cl)O2` (stereo not drawn) [Embodiment 48] were, in that order, 103 nM and above 1000 nM.
Regarding `O=C(O)c1cn2c(cc1=O)-c1cc(Cl)c(OCCCCCO)cc1OC2c1ccccc1` (stereo not drawn) [Embodiment 8], the half-maximal effective concentration (EC50) was found to be 66.2 nM in experiment [1] (setting [2]) and 20.8 nM in the experiment with HBV DNA (setting [3]).
As to `COCCCOc1cc2c(cc1Cl)-c1cc(=O)c(C(=O)O)cn1C(c1cnsc1C)O2` (stereo not drawn) [Embodiment 35], the EC50 in experiment [1] (HepG2. 2. 15 cell culture supernatant, collected on the eighth day, ELISA, read-out: HBsAg experimental results EC50) was determined as 11 nM; in the experiment on HBV DNA (HepG2. 2. 15 cell culture supernatant, collected on the eighth day, real time-qPCR, read-out: HBV-DNA experimental results EC50) it was 25.1 nM.
As to `COCCCOc1cc2c(cc1Cl)-c1cc(=O)c(C(=O)O)cn1C(c1ccc(C)cc1)O2` (stereo not drawn) [Embodiment 23], the EC50 in experiment [1] (setting [2]) is 127 nM; in the experiment with HBV DNA (setting [3]), 85.9 nM.
As for `O=C(O)c1cn2c(cc1=O)-c1cc(Cl)c(OCCN3CCOCC3)cc1OC2c1ccccc1` (stereo not drawn) [Embodiment 5], the EC50 in experiment [1] (setting [2]) came out at 50 nM; in the experiment with HBV DNA (setting [3]), 15.1 nM.
The like results for `COCCCOc1cc2c(cc1Cl)-c1cc(=O)c(C(=O)O)cn1C(c1ncc(C)s1)O2` (stereo not drawn) [Embodiment 41] were, in that order, 58 nM and 17.8 nM.
As to `COCCCOc1cc2c(cc1Cl)-c1cc(=O)c(C(=O)O)cn1C(c1nccs1)O2` (stereo not drawn) [Embodiment 14], the EC50 (in experiment [1] (setting [2]); in the experiment on HBV DNA (setting [4])) was 6.88 nM throughout.
Take `COCCCOc1cc2c(cc1Cl)-c1cc(=O)c(C(=O)O)cn1C(c1c(F)cccc1F)O2` (stereo not drawn) [Embodiment 29]: the results for the EC50 (in experiment [1] (setting [2]); with HBV DNA (setting [3])) were 12.2 nM and 4.11 nM, respectively.
For the compound `COCCCOc1cc2c(cc1Cl)-c1cc(=O)c(C(=O)O)cn1C(c1cc(F)cc(OC)c1)O2` (stereo not drawn) [Embodiment 24], the figures for the EC50 (in experiment [1] (setting [2]); in the experiment with HBV DNA (setting [3])) were 35.5 nM and 59.3 nM, respectively.
As for `CC(C)(CO)COc1cc2c(cc1Cl)-c1cc(=O)c(C(=O)O)cn1C(c1ccccc1)O2` (stereo not drawn) [Embodiment 2], the EC50 was found to be 55.8 nM in experiment [1] (setting [2]) and 34.5 nM in the experiment with HBV DNA (setting [3]).
The like results for `COCCCOc1cc2c(cc1Cl)-c1cc(=O)c(C(=O)O)cn1C(c1nc(C)c(C)s1)O2` (stereo not drawn) [Embodiment 28] were, in that order, 152 nM and 278 nM.
Take `C#CCOc1cc2c(cc1Cl)-c1cc(=O)c(C(=O)O)cn1C(c1ccccc1)O2` (stereo not drawn) [Embodiment 9]: the 50% effective concentration (EC50) worked out at 138 nM in experiment [1] (setting [2]) and 74.1 nM with HBV DNA (setting [3]).
The like results for `CS(=O)(=O)CCCOc1cc2c(cc1Cl)-c1cc(=O)c(C(=O)O)cn1C(c1ccccc1)O2` (stereo not drawn) [Embodiment 11] were, in that order, 73.9 nM and 40.8 nM.
The like results for `COCCCOc1cc2c(cc1OC)-c1cc(=O)c(C(=O)O)cn1C(c1cscn1)O2` (stereo not drawn) [Embodiment 43] were, in that order, 15.4 nM and 19.4 nM.
On to `COCCCOc1cc2c(cc1Cl)-c1cc(=O)c(C(=O)O)cn1C(c1ccc(OC)cc1F)O2` (stereo not drawn) [Embodiment 34], for which the 50% effective concentration (EC50) turned out to be 29.6 nM in experiment [1] (setting [2]) and 21.3 nM in the experiment with HBV DNA (setting [3]).
Take `O=C(O)c1cn2c(cc1=O)-c1cc(Cl)c(OCCCO)cc1OC2c1ccccc1` (stereo not drawn) [Embodiment 6]: the EC50 in experiment [1] (setting [2]) amounted to 20.3 nM; in the experiment on HBV DNA (setting [3]) it was 6.04 nM.
The like results for `COCCCOc1cc2c(cc1Cl)-c1cc(=O)c(C(=O)O)cn1C(c1cc(F)ccc1OC)O2` (stereo not drawn) [Embodiment 25] were, in that order, 35.9 nM and 18.7 nM.
Regarding `COCCCOc1cc2c(cc1Cl)-c1cc(=O)c(C(=O)O)cn1C(c1ccccc1C)O2` (stereo not drawn) [Embodiment 21], the figures for the EC50 (in experiment [1] (setting [2]); with HBV DNA (setting [3])) were 16.3 nM and 7.12 nM, respectively.
The like results for `COc1cc2c(cc1Cl)-c1cc(=O)c(C(=O)O)cn1C(c1ccccc1)O2` (stereo not drawn) [Embodiment 1] were, in that order, 27.6 nM and 11.8 nM.
The like results for `COCCCOc1cc2c(cc1Cl)-c1cc(=O)c(C(=O)O)cn1C(c1cccc(C)c1)O2` (stereo not drawn) [Embodiment 22] were, in that order, 38.2 nM and 20.6 nM.
As to `COCCCOc1cc2c(cc1Cl)-c1cc(=O)c(C(=O)O)cn1C(c1ccc(F)cc1)O2` (stereo not drawn) [Embodiment 18], the results for the EC50 (in experiment [1] (setting [2]); in the experiment with HBV DNA (setting [3])) were 73.7 nM and 40.8 nM, respectively.
On to `COCCCOc1cc2c(cc1Cl)-c1cc(=O)c(C(=O)O)cn1C(c1cccc(F)c1)O2` (stereo not drawn) [Embodiment 20], for which the concentration giving a half-maximal response (EC50) in experiment [1] (setting [2]) came out at 22.5 nM; in the experiment with HBV DNA (setting [3]), 11 nM.
